Consider 17 compounds from ChEMBL document CHEMBL1134090, “Esters of 2-(1-hydroxyalkyl)-1,4-dihydroxy-9,10-anthraquinones with melphalan as multifunctional anticancer agents” (Bioorg Med Chem Lett, 2001).

The nature of data set [1]: Antitumor activity against S-180 cells after i.p. administration in mice up to 7 days at a dose of 16 umol/kg. Format: functional, Mus musculus.
Data set [2] can be described thus: Cytotoxicity against L-1210 cells. Format: cell-based, L1210. The conditions noted are these: mouse, read-out: ED50 (the source's name).
The species named for a further data set is Mus musculus. As to the kind of experiment: Ratio of number of mice that survived after 50 days among eight mice tested. Format: functional.

Each structure is given as a SMILES string. ≈ marks a conversion by molar mass, not a printed value.

Broadly, the T/C is the ratio of treated to control. Compound `CCC(OC(=O)C(Cc1ccc(N(CCCl)CCCl)cc1)NC=O)c1cc(O)c2c(c1O)C(=O)c1ccccc1C2=O` (stereo not drawn) came in with a T/C in data set [1] of 245%. Also, the CC50 in data set [2] came out at 0.2 µg/mL (≈ 0.326 µM). For the same compound, in the data set filed under Mus musculus, the Survival ratio is 3.

In data set [1], `CCCCC(OC(=O)C(Cc1ccc(N(CCCl)CCCl)cc1)NC=O)c1cc(O)c2c(c1O)C(=O)c1ccccc1C2=O` (stereo not drawn) returned a T/C of 230%. Further, the CC50 in data set [2] turned out to be 0.4 µg/mL (≈ 0.623 µM). The Survival ratio in the data set filed under Mus musculus is 2.

`CCCCCC(O)c1cc(O)c2c(c1O)C(=O)c1ccccc1C2=O` (stereo not drawn) yielded a T/C in data set [1] of 108%. Besides, the CC50 in data set [2] amounted to 58 µg/mL (≈ 170 µM).

`CCCC(O)c1cc(O)c2c(c1O)C(=O)c1ccccc1C2=O` (stereo not drawn) showed a T/C in data set [1] of 125%. For the same compound, in data set [2], the CC50 came out at 10.2 µg/mL (≈ 32.7 µM).

`CCCCC(O)c1cc(O)c2c(c1O)C(=O)c1ccccc1C2=O` (stereo not drawn) registered a T/C in data set [1] of 110%. Besides, the CC50 in data set [2] worked out at 23.7 µg/mL (≈ 72.6 µM).

In turn, `CCC(O)c1cc(O)c2c(c1O)C(=O)c1ccccc1C2=O` (stereo not drawn) had a T/C in data set [1] of 135%. Also, in data set [2], the CC50 was determined as 7.2 µg/mL (≈ 24.1 µM).

`O=CNC(Cc1ccc(N(CCCl)CCCl)cc1)C(=O)OCc1cc(O)c2c(c1O)C(=O)c1ccccc1C2=O` (stereo not drawn) showed a T/C in data set [1] of 265%. The CC50 in data set [2] came out at 0.086 µg/mL (≈ 0.147 µM). In the data set listed under Mus musculus, the Survival ratio is 3.

In data set [1], `O=C1c2ccccc2C(=O)c2c(O)c(CO)cc(O)c21` showed a T/C of 125%. For the same compound, in data set [2], the CC50 worked out at 15 µg/mL (≈ 55.5 µM).

In data set [1], `CC(O)c1cc(O)c2c(c1O)C(=O)c1ccccc1C2=O` (stereo not drawn) returned a T/C of 139%. For the same compound, the CC50 in data set [2] turned out to be 1.9 µg/mL (≈ 6.68 µM).

`CCCCCC(OC(=O)C(Cc1ccc(N(CCCl)CCCl)cc1)NC=O)c1cc(O)c2c(c1O)C(=O)c1ccccc1C2=O` (stereo not drawn): in data set [1], the T/C came to 230%. Besides, in data set [2], the CC50 is 3.1 µg/mL (≈ 4.73 µM). Further, the Survival ratio in the data set listed under Mus musculus is recorded as 1.

For the compound `CCCCCCC(O)c1cc(O)c2c(c1O)C(=O)c1ccccc1C2=O` (stereo not drawn), in data set [1], the T/C is given as 115%. Moreover, in data set [2], the CC50 was found to be 60 µg/mL (≈ 169 µM).

In data set [1], `CCCCCCCC(O)c1cc(O)c2c(c1O)C(=O)c1ccccc1C2=O` (stereo not drawn) yielded a T/C of 103%. Moreover, the CC50 in data set [2] amounted to 80 µg/mL (≈ 217 µM).

`CC(OC(=O)C(Cc1ccc(N(CCCl)CCCl)cc1)NC=O)c1cc(O)c2c(c1O)C(=O)c1ccccc1C2=O` (stereo not drawn): the T/C in data set [1] was 272%. In addition, the CC50 in data set [2] was found to be 0.12 µg/mL (≈ 0.2 µM). Also, the Survival ratio in the data set filed under Mus musculus stood at 6.

In data set [1], `CCCC(OC(=O)C(Cc1ccc(N(CCCl)CCCl)cc1)NC=O)c1cc(O)c2c(c1O)C(=O)c1ccccc1C2=O` (stereo not drawn) gave a T/C of 240%. Also, the CC50 in data set [2] amounted to 0.97 µg/mL (≈ 1.55 µM). Besides, in the data set filed under Mus musculus, the Survival ratio worked out at 3.

For the compound `CCCCCCC(OC(=O)C(Cc1ccc(N(CCCl)CCCl)cc1)NC=O)c1cc(O)c2c(c1O)C(=O)c1ccccc1C2=O` (stereo not drawn), the T/C in data set [1] is recorded as 210%. Further, the CC50 in data set [2] came out at 4.5 µg/mL (≈ 6.72 µM). In the data set filed under Mus musculus, the Survival ratio was found to be 0.

`CCCCCCCC(OC(=O)C(Cc1ccc(N(CCCl)CCCl)cc1)NC=O)c1cc(O)c2c(c1O)C(=O)c1ccccc1C2=O` (stereo not drawn) came in with a T/C in data set [1] of 205%. In addition, the CC50 in data set [2] came to 5.9 µg/mL (≈ 8.63 µM). Also, in the data set listed under Mus musculus, the Survival ratio was determined as 0.

Consider `N[C@@H](Cc1ccc(N(CCCl)CCCl)cc1)C(=O)O` [MELPHALAN], for which the T/C in data set [1] is reported as 225%. For the same compound, the CC50 in data set [2] is 0.89 µg/mL (≈ 2.92 µM). The Survival ratio in the data set listed under Mus musculus amounted to 3.
